Article PMC9855333, “1-(Arylsulfonyl-isoindol-2-yl)piperazines as 5-HT6R Antagonists: Mechanochemical Synthesis, In Vitro Pharmacological Properties and Glioprotective Activity” (Biomolecules, 2022)

Key:
[1] = target: T1, 5-HT6R (Homo sapiens, UniProt P50406); assay: Basal cAMP production by constitutively active 5-HT6R in NG108-15 cells (CAMYEL BRET); assay type: cell-based; design: expressed in transfected cells; host or cells: NG108-15 (mouse neuroblastoma x rat glioma hybrid), transient co-transfection with CAMYEL, Lipofectamine 2000; conditions: NG108-15 cells transiently expressing 5-HT6R
Protocol: Changes in cyclic AMP levels upon exposure to increasing concentrations of the tested compounds were assessed by BRET (Bioluminescence Resonance Energy Transfer) measurement using a Mithras LB 940 plate reader (Berthold Technologies), as previously described. A detailed description is reported in the Supporting Information.
2. Procedure for determination of functional activity at Gs signaling
2.1. Impact of compound 3e, 3f and 3g on cAMP production in 1321N1 cells The properties of evaluated compounds to inhibit cAMP production induced by 5-CT (1000 nM), a 5-HT6R agonist, was assessed according to previously published procedures. The level of cAMP was measured using frozen recombinant 1321N1 cells expressing the human serotonin 5-HT6R (PerkinElmer). Total cAMP was measured using the LANCE cAMP detection kit (PerkinElmer), according to the manufacturer's recommendations. For quantification of cAMP levels, 2000 cells/well (5 μL) were incubated with mixture of compound 3e, 3f and 3g (5 μL) for 30 min at room temperature in 384-well white opaque microtiter plate. After incubation, the reaction was stopped and cells were lysed by the addition of 10 μL of working solution (5 μL Eu-cAMP and 5 μL ULight-anti-cAMP) for 1 h at room temperature. Time-resolved fluorescence resonance energy transfer (TR-FRET) was detected by an Infinite M1000 Pro (Tecan) using instrument settings from LANCE cAMP detection kit manual. Compound was tested in triplicate at 8 concentrations (10-11–10-4 M). Kb values were calculated from Cheng–Prusoff equation specific for the analysis of functional inhibition curves:
Kb = IC50/(1+A/EC50) where A represents agonist concentration, IC50 the concentration of antagonist producing a 50% reduction in the response to agonist, and EC50 the agonist concentration which causes a half of the maximal response.
1.1.1. Impact of evaluated compounds on cAMP production elicited by constitutively active […]
BRET was measured using a Mithras LB 940 plate reader (Berthold Technologies). […]

[2] = Cytotoxicity, MTT test, SH-SY5Y; assay type: cell-based; conditions: human, SH-SY5Y cells (human neuroblastoma)
Protocol: (§1) Hepatotoxicity, neurotoxicity, and glial cytotoxicity were investigated using the following cellular models: human hepatocellular carcinoma (HepG2), human neuroblastoma (SHSY-5Y), and mouse astrocytes (C8-D1A), all from ATCC (American Type Culture Collection, Manassas, VA, USA). Cells were cultured in appropriate culture media recommended by ATCC supplemented with 10% fetal bovine serum (FBS; Gibco, Life Technologies, Carlsbad, CA, USA) and 1% antibiotic mixture (Gibco, Life Technologies, Carlsbad, CA, USA). Cells were cultured at standard conditions (5% CO2, 95% humidity, 37 °C). For cytotoxicity experiments, cells were seeded into 96 well plates at an initial density of 2000 cells/well. After overnight incubation, cells were treated with 3e, 3f, and 3g in a concentration range of 0.78–50 µM for 48 h; then, an MTT assay was performed as described previously. Briefly, following cell exposure, 10 µL of MTT reagent was added to each well. After the next 4 h, the medium was aspirated, and formazan produced in cells appeared as dark crystals in the bottom of the wells. Next, 100 µL DMSO was added to each well. Then, the optical density of the solution (OD) at 570 nm was determined on a plate reader (Spectra Max iD3, Molecular Devices, San Jose, CA, USA). The experiments were run three times in triplicates.

[3] = system: 5-HT6R-operated Cdk5 signaling; assay: Cdk5-dependent neurite growth in NG108-15 cells transiently expressing 5-HT6R; assay type: cell-based; conditions: NG108-15 cells expressing 5-HT6R; for neurite length: treatment for 24 h (legend says 48 h), vehicle 16.95 ± 1.5 μm
Protocol: NG108-15 cells were transfected with plasmids encoding either cytosolic GFP or a GFP-tagged 5-HT6R and grown on glass coverslips for 6 h. Then, cells were treated with either vehicle or the evaluated compounds. Neurite growth was measured on cells imaged using an AxioImagerZ1 microscope equipped with epifluorescence (Zeiss) using the Neuron J plugin of the ImageJ software (NIH). A detailed description is reported in the Supporting Information.
3. Procedure for evaluation of the effect of tested compounds on Cdk5-dependent neurite
In line with previously reported methods, NG108-15 cells were transfected with plasmids encoding either cytosolic GFP or a GFP-tagged 5-HT6R in suspension using Lipofectamine 2000 (Life technologies) and plated on glass coverslips. Six hours after transfection, cells were treated with either DMSO (control), 3e, 3f and 3g or SB-258585 for 48 h. Cells were fixed in 4% paraformaldehyde (PFA) supplemented with 4% sucrose for 10 min. PFA fluorescence was quenched by incubating the cells in PBS containing 0.1 M glycine, prior to mounting in Prolong Gold antifade reagent (Thermo Fisher Scientific). Cells were imaged using an AxioImagerZ1 microscope equipped with epifluorescence (Zeiss), using a 20 × objective for cultured cells, and neurite length was assessed using the Neuron J plugin of the ImageJ software (NIH).

[4] = target: T1, 5-HT6R; assay: Inhibition of 5-CT-induced cAMP production in 1321N1 cells (LANCE TR-FRET); assay type: cell-based; design: host or cells: 1321N1 (frozen recombinant cells); conditions: 5-CT as agonist, mean ± SEM, three independent experiments
[5] = Metabolic stability in rat liver microsomes (RLM); assay type: in vitro ADME; conditions: for microsomal CLint at 20 µM / half-life at 20 µM: male, rat, rat liver microsomes, pH 7.4, protein concentration 0.5 mg/mL; for half-life at 20 µM: read-out: Metabolic Stability t1/2; for Metabolic Stability Major Metabolite: protein concentration 0.5 mg/mL
Protocol: Metabolic stability studies were performed according to reported protocols. […] All samples were analyzed in duplicate.

[6] = Cytotoxicity, MTT test, HepG2; assay type: cell-based; conditions: human, HepG2 cells (human hepatocellular carcinoma)
Protocol: as §1

T1 sequence (P50406 whole entry): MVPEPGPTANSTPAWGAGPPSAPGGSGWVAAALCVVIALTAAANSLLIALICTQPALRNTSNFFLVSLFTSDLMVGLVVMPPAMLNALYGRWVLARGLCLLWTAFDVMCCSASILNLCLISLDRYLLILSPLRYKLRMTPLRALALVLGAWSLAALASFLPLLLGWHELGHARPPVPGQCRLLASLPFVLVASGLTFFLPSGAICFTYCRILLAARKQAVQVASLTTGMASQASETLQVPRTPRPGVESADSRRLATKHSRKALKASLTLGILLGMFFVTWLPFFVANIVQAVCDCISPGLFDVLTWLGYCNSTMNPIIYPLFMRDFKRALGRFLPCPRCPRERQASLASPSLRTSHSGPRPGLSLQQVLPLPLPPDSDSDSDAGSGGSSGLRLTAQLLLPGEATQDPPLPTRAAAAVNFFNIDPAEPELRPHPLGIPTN

O=S(=O)(c1cccc(N2CCNCC2)c1)N1Cc2ccccc2C1 [3e, 2-{[3-(Piperazin-1-yl)phenyl]sulfonyl}isoindoline]
5-HT6R Functional Profile at Gs Signaling [1]: Neutral antagonist | IC50 at 48 h [2]: 42 µM | neurite length [3]: 11.81 ± 2.61 μm | Kb [4]: 0.0007 ± 0.0002 µM | microsomal CLint at 20 µM [5]: 3.78 µL/min/mg | half-life at 20 µM [5]: 6.12 h | Metabolic Stability Major Metabolite [5]: not detected | IC50 at 48 h [6]: > 50 µM

O=S(=O)(c1cccc(N2CCNCC2)c1)N1Cc2cccc(Cl)c2C1 [3f, 4-Chloro-2-{[3-(piperazin-1-yl)phenyl]sulfonyl}isoindoline]
5-HT6R Functional Profile at Gs Signaling [1]: Neutral antagonist | IC50 at 48 h [2]: 38 µM | neurite length [3]: 10.92 ± 0.89 μm | Kb [4]: 0.0035 ± 0.0008 µM | microsomal CLint at 20 µM [5]: 18 µL/min/mg | half-life at 20 µM [5]: 1.28 h | Metabolic Stability Major Metabolite [5]: hydroxylated | IC50 at 48 h [6]: > 50 µM

O=S(=O)(c1cccc(N2CCNCC2)c1)N1Cc2cccc(Br)c2C1 [3g, 4-Bromo-2-{[3-(piperazin-1-yl)phenyl]sulfonyl}isoindoline]
5-HT6R Functional Profile at Gs Signaling [1]: Neutral antagonist | IC50 at 48 h [2]: 48 µM | reduction in neurite growth ([3]; vs vehicle-treated cells): 50% | neurite length [3]: 8.08 ± 0.84 μm | functional profile at the 5-HT6R-elicited Cdk5 pathway ([3]; neurite growth): potent inverse agonist | Kb [4]: 0.0016 ± 0.0003 µM | microsomal CLint at 20 µM [5]: 14.7 µL/min/mg | half-life at 20 µM [5]: 1.57 h | Metabolic Stability Major Metabolite [5]: hydroxylated | IC50 at 48 h [6]: > 50 µM
